Patent US20230159527A1, “COMPOUNDS AS BCL-2 INHIBITORS” (Fochon Pharmaceuticals, Ltd., priority 2020, published 2023)
pIC50: −log10 of the molar value.

Legend:
Assay type in all cases: cell-based
RS4;11 cells = assay: Cell proliferation assay, RS4;11 cells (MTS, 72 h); conditions: Homo sapiens, RS4;11 cell proliferation
Procedure, shortened: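 RS4;11 cells (30000/well, RPMI-1640 plus 10% FBS) treated with compounds at 1.5-10000 nM for 72 h at 37° C, 5% CO2. Viability by MTS (2 h), absorbance at 490 nm with 650 nm reference; IC50 from proliferation inhibition.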

Toledo cells = assay: Cell proliferation assay, Toledo cells (MTS, 72 h); conditions: Homo sapiens, Toledo cells, MTS, read-out: Toledo IC50
Procedure, shortened: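 IC50 was derived from 490 nm absorbance after a 2 h MTS step. Before that, compounds at 1.5–10000 nM final (nine points) acted on Toledo cells for 72 h at 37 °C, 5% CO2. Cells were seeded at 30000/well in 10% FBS RPMI-1640 and rested 4 h before dosing.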

DoHH2 cells = assay: Cell proliferation assay, DoHH2 cells (MTS, 120 h); conditions: Homo sapiens, DOHH-2
Procedure, shortened: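 DoHH2 cells in RPMI-1640 with 10% FBS were plated at 5000/well and rested 4 h. They were then exposed to compound at nine final concentrations (10000 to 1.5 nM) for 120 h at 37 °C. Viability was read by MTS (2 h, A490) and IC50 derived by curve fitting.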

Structure (SMILES) | pIC50 (RS4;11 cells) | pIC50 (Toledo cells) | pIC50 (DoHH2 cells)
CC(C)c1ccccc1[C@H]1CCCN1C1CC2(CCN(c3ccc(C(=O)NS(=O)(=O)c4cnc(NCC5CCOCC5)c([N+](=O)[O-])c4)c(Oc4cnc5[nH]ccc5c4)c3)CC2)C1 [Example A-5b, (R)-2-((1H-pyrrolo[2,3-b]pyridin-5-yl)oxy)-4-(2-(2-(2-isopropylphenyl)pyrrolidin-1-yl)-7-azaspiro[3.5]nonan-7-yl)-N-((5-nitro-6-(((tetrahydro-2H-pyran-4-yl)methyl)amino)pyridin-3-yl)sulfonyl) benzamide] | ≥ 9.00 | 9.00 | ≥ 9.00
CC(C)c1ccccc1[C@H]1CCCN1C1CC2(CCN(c3ccc(C(=O)NS(=O)(=O)c4cnc(NCC5C6COCC56)c([N+](=O)[O-])c4)c(Oc4cnc5[nH]ccc5c4)c3)CC2)C1 (stereo partly drawn) [Example A-27b, 2-((1H-pyrrolo[2,3-b]pyridin-5-yl)oxy)-N-((6-(((3-oxabicyclo[3.1.0]hexan-6-yl)methyl)amino)-5-nitro-pyridin-3-yl)sulfonyl)-4-(2-((R)-2-(2-isopropylphenyl)pyrrolidin-1-yl)-7-azaspiro[3.5]nonan-7-yl) benzamide] | ≥ 9.00 | 9.00 | ≥ 9.00
O=C(NS(=O)(=O)c1cnc(NCC2CCOCC2)c([N+](=O)[O-])c1)c1ccc(N2CCC3(CC2)CC(N2CCC[C@@H]2c2ccccc2C2CC2)C3)cc1Oc1cnc2[nH]ccc2c1 [Example A-3b, (R)-2-((1H-pyrrolo[2,3-b]pyridin-5-yl)oxy)-4-(2-(2-(2-cyclopropyl-phenyl)pyrrolidin-1-yl)-7-azaspiro [3.5]nonan-7-yl)-N-((5-nitro-6-(((tetrahydro-2H-pyran-4-yl)methyl)amino)pyridin-3-yl)sulfonyl) benzamide] | ≥ 9.00 | 9.00 | ≥ 9.00
Cc1nc(NC[C@H]2CC[C@](C)(O)CC2)c([N+](=O)[O-])cc1S(=O)(=O)NC(=O)c1ccc(N2CCC3(CC2)CC(N2CCC[C@H]2c2ccccc2C(C)C)C3)cc1Oc1cnc2[nH]ccc2c1 (single isomer, unassigned) [Example A-121, 2-((1H-pyrrolo[2,3-b]pyridin-5-yl)oxy)-N-((6-((((1r,4r)-4-hydroxy-4-methylcyclohexyl)methyl)amino)-2-methyl-5-nitropyridin-3-yl)sulfonyl)-4-(2-((R or S)-2-(2-isopropylphenyl)pyrrolidin-1-yl)-7-azaspiro[3.5]nonan-7-yl) benzamide] | ≥ 9.00 | 9.00 | ≥ 9.00
CC(C)c1ccccc1C1COCCN1C1CC2(CCN(c3ccc(C(=O)NS(=O)(=O)c4cnc(NCC5(C#N)CCOCC5)c([N+](=O)[O-])c4)c(Oc4cnc5[nH]ccc5c4)c3)CC2)C1 (single isomer, unassigned) [Example A-142, (R or S)-2-((1H-pyrrolo[2,3-b]pyridin-5-yl)oxy)-N-((6-(((4-cyanotetrahydro-2H-pyran-4-yl)methyl)amino)-5-nitro-pyridin-3-yl)sulfonyl)-4-(2-(3-(2-iso-propylphenyl)morpholino)-7-azaspiro [3.5]nonan-7-yl)benzamide] | ≥ 9.00 | 8.05 | ≥ 9.00
O=C(NS(=O)(=O)c1cc2c(c([N+](=O)[O-])c1)O[C@H](CN1CCOCC1)CO2)c1ccc(N2CCC3(CC2)CC(N2CCC[C@H]2c2ccccc2C2CC2)C3)cc1Oc1cnc2[nH]ccc2c1 (single isomer, unassigned) [Example E-38, 2-((1H-pyrrolo [2,3-b]pyridin-5-yl)oxy)-4-(2-((R or S)-2-(2-cyclopropylphenyl)pyrrolidin-1-yl)-7-azaspiro[3.5]nonan-7-yl)-N-(((R)-2-(morpholinomethyl)-8-nitro-2,3-dihydrobenzo [b][1,4]dioxin-6-yl)sulfonyl) benzamide] | ≥ 9.00 | 9.00 | ≥ 9.00
CC(C)c1ccccc1[C@H]1CCCN1C1CC2(CCN(c3ccc(C(=O)NS(=O)(=O)c4cnc(NCC5(F)CCOCC5)c([N+](=O)[O-])c4)c(Oc4cnc5[nH]ccc5c4)c3)CC2)C1 [Example A-31b, (R)-2-((1H-pyrrolo[2,3-b]pyridin-5-yl)oxy)-N-((6-(((4-fluorotetra-hydro-2H-pyran-4-yl)methyl)amino)-5-nitropyridin-3-yl)sulfonyl)-4-(2-(2-(2-isopropylphenyl)pyrrolidin-1-yl)-7-azaspiro[3.5]nonan-7-yl)benzamide] | ≥ 9.00 | 8.70 | ≥ 9.00
CC(C)c1ccccc1C1COCCN1C1CC2(CCN(c3ccc(C(=O)NS(=O)(=O)c4cnc(NCC5CCOCC5)c([N+](=O)[O-])c4)c(Oc4cnc5[nH]ccc5c4)c3)CC2)C1 (single isomer, unassigned) [Example A-55a, (R or S)-2-((1H-pyrrolo[2,3-b]pyridin-5-yl)oxy)-4-(2-(3-(2-isopropyl-phenyl)morpholino)-7-azaspiro[3.5]nonan-7-yl)-N-((5-nitro-6-(((tetra-hydro-2H-pyran-4-yl)methyl)amino)pyridin-3-yl)sulfonyl)benzamide] | ≥ 9.00 | 8.30 | ≥ 9.00
CC(C)c1ccccc1[C@@H]1COCCN1C1CC2(CCN(c3ccc(C(=O)NS(=O)(=O)c4cnc(NC[C@H]5CC[C@](C)(O)CC5)c([N+](=O)[O-])c4)c(Oc4cnc5[nH]ccc5c4)c3)CC2)C1 (single isomer, unassigned) [Example A-56b, 2-((1H-pyrrolo[2,3-b]pyridin-5-yl)oxy)-N-((6-((((1r,4r)-4-hydroxy-4-methylcyclohexyl)methyl)amino)-5-nitropyridin-3-yl)sulfonyl)-4-(2-((R or S)-3-(2-isopropylphenyl)morpho-lino)-7-azaspiro[3.5]nonan-7-yl) benzamide] | ≥ 9.00 | 9.00 | ≥ 9.00
CC(C)c1ccccc1[C@@H]1COCCN1C1CC2(CCN(c3ccc(C(=O)NS(=O)(=O)c4cc5c(c([N+](=O)[O-])c4)O[C@H](CN4CCOCC4)CO5)c(Oc4cnc5[nH]ccc5c4)c3)CC2)C1 (single isomer, unassigned) [Example E-40, 2-((1H-pyrrolo [2,3-b]pyridin-5-yl)oxy)-4-(2-((R or S)-3-(2-isopropylphenyl)morpholino)-7-azaspiro[3.5]nonan-7-yl)-N-(((R)-2-(morpholinomethyl)-8-nitro-2,3-dihydrobenzo [b][1,4]dioxin-6-yl)sulfonyl) benzamide] | ≥ 9.00 | 9.00 | ≥ 9.00
O=C(NS(=O)(=O)c1cnc(NCC2C3COCC23)c([N+](=O)[O-])c1)c1ccc(N2CCC3(CC2)CC(N2CCC[C@@H]2c2ccccc2C2CC2)C3)cc1Oc1cnc2[nH]ccc2c1 (stereo partly drawn) [Example A-30b, 2-((1H-pyrrolo[2,3-b]pyridin-5-yl)oxy)-N-((6-(((3-oxabicyclo[3.1.0]hexan-6-yl)methyl)amino)-5-nitro-pyridin-3-yl)sulfonyl)-4-(2-((R)-2-(2-cyclopropylphenyl)pyrrolidine-1-yl)-7-azaspiro[3.5]nonan-7-yl)benzamide] | ≥ 9.00 | 9.00 | ≥ 9.00
